Laboratory results as given in patent US20130203718A1 (priority 2010, published 2013).
Entries after “also recorded” stand apart in the source; their conditions may differ.

Molecular target: T1, hPRB (Homo sapiens, UniProt P06401)
T1 sequence (P06401 1-933): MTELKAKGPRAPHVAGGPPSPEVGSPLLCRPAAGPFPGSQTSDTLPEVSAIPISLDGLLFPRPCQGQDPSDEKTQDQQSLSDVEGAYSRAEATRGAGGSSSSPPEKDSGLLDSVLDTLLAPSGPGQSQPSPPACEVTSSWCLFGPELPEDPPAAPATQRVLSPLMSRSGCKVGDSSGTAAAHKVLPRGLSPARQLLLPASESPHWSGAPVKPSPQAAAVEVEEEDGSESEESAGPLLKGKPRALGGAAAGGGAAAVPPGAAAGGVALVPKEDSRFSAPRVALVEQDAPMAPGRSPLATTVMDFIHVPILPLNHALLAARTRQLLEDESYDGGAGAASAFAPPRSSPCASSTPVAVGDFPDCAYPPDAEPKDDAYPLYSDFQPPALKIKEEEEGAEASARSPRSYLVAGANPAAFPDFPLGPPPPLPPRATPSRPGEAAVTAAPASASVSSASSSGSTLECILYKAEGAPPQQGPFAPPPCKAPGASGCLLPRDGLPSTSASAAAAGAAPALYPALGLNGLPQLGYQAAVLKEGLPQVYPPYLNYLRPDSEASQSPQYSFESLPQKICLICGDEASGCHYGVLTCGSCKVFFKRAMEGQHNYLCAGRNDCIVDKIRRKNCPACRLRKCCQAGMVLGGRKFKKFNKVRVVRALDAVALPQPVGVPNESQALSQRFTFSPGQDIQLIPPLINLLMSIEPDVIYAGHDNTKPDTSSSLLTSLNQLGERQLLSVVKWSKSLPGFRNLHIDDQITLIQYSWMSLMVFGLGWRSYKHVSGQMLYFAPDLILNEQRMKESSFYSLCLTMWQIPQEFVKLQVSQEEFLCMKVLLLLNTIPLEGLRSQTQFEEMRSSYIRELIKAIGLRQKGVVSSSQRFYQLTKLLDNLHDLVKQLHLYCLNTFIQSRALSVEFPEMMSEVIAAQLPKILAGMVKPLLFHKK
Experiment: PR transactivation assay (GRE2-Luc) in HEK293T cells transiently expressing hPRB
Assay type: cell-based
Set-up: expressed in transfected cells; host or cells: HEK 293T
Conditions: APRn 1 μM
How it was run: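 HEK293T cells transiently transfected by calcium phosphate with human PRB, GRE2-Luc reporter and β-gal control, grown in dextran-charcoal-treated FCS. Luciferase measured in lysates; agonist efficacy at 1 μM compound as ratio of luciferase activities ×100, antagonist efficacy as 100 minus that ratio; mean±SEM of 3-5 experiments.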

[1] = series 2-4, stated for both HEK293T and MDA-MB-231 iPRAB cells, FIGS. 3-8
[2] = series 1 (no C3 substituent), HEK293T, FIG. 1

Compound | hPRB agonist/antagonist character (in words) [1] | hPRB agonist/antagonist character (in words) [2]
CC(=O)[C@H]1CC[C@H]2[C@@H]3CC=C4C[C@@H](F)CC[C@]4(C)[C@H]3CC[C@]12C [APR-16, 3β-Fluoropregn-5-en-20-one] | efficient hPRB antagonists; also recorded: agonist activity of this molecule is completely abolished | 
CC#C[C@]1(O)CCC2C3CC[C@H]4CCCC[C@]4(C)C3CC[C@@]21C (stereo partly drawn) [APR-42, 17α-(1-Propynyl)-5α-androstan-17β-ol] |  | full antagonists
C[C@]12CCC3C(CC=C4C[C@@H](F)CC[C@@H]43)C1CCC2=O (stereo partly drawn) [APR-47, 3β-Fluoro-19-nor-androst-5-en-17-one] | efficient hPRB antagonists | 
CC#C[C@]1(O)CCC2C3CC[C@H]4CCCC[C@@H]4C3CC[C@@]21C (stereo partly drawn) [APR-54, 17α-(1-Propynyl)-19-nor-5-androstan-17β-ol] |  | full antagonists
